ChEMBL document CHEMBL1240516, “Studies on ligand binding to histidine triad nucleotide binding protein 1” (Bioorg Med Chem, 2010)

Key:
[1] = target: T1, Adenosine 5'-monophosphoramidase HINT1 (Mus musculus, UniProt P70349); assay: Binding affinity to mouse HINT1 by HSQC spectra assay
T1 sequence (P70349 whole entry): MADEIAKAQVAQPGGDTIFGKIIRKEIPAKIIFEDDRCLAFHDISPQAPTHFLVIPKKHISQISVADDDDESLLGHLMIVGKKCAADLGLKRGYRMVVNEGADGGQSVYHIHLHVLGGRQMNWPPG

[2] = target: T1, Adenosine 5'-monophosphoramidase HINT1; assay: Binding affinity to mouse HINT1 by fluorescence quenching assay
[3] = target: T1, Adenosine 5'-monophosphoramidase HINT1; assay: Binding affinity to mouse HINT1 by NMR analysis

Structure (SMILES) | Kd [1] [µM] | Kd [2] [µM] | Kd [3] [µM]
NC(=O)c1ncn([C@@H]2O[C@H](COP(=O)(O)O)[C@@H](O)[C@H]2O)c1N | 1200 | 1100 | –
Nc1nc2c(ncn2[C@@H]2O[C@H](COP(=O)(O)O)[C@H](O)[C@@H]2O)c(=O)[nH]1 [E626] | – | 67 | 60
